Results: ChEMBL document CHEMBL1153399, “Design, synthesis and SAR studies of tripeptide analogs with the scaffold 3-phenylpropane-1,2-diamine as aminopeptidase N/CD13 inhibitors” (Bioorg Med Chem, 2009)

What was measured:
Aminopeptidase N = molecular target: T1, Aminopeptidase N (Sus scrofa, UniProt P15145); assay: Inhibition of pig kidney microsomal APN
T1 sequence (P15145 whole entry): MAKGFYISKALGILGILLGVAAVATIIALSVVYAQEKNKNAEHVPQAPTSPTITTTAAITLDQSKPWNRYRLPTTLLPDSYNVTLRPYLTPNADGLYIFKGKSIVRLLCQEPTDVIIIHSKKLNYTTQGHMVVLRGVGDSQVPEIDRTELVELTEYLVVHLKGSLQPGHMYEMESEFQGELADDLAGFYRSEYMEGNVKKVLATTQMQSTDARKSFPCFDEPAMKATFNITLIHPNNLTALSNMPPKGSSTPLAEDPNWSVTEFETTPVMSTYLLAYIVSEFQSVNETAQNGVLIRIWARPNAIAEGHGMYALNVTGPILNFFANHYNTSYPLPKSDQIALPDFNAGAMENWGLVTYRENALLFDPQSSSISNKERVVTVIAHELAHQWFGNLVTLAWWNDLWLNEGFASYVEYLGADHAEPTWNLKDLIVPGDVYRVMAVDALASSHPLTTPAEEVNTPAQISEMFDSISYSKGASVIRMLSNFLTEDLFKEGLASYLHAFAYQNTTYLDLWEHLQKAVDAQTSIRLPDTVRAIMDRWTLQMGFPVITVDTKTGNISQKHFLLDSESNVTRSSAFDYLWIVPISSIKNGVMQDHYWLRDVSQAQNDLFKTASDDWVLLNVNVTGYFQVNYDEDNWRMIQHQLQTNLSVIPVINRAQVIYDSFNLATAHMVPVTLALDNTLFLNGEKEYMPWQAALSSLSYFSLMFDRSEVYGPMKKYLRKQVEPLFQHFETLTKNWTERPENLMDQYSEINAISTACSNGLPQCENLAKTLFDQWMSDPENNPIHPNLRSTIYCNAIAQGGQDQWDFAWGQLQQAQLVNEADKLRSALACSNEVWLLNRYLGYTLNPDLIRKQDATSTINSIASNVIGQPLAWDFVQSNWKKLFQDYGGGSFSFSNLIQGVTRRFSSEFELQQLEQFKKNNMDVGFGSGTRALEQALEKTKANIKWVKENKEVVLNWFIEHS

HL-60 = assay: Cytotoxicity against human HL60 cells after 48 hrs by MTT assay; format: functional, cell-based; details: HL-60, 48 h

Row | SMILES | IC50 (Aminopeptidase N) [µM] | IC50 (HL-60) [µM]
1 | N[C@@H](CNC(=O)[C@H](CS)NC(=O)c1ccc(Cl)cc1Cl)Cc1ccccc1 | 1050 | –
2 | N[C@@H](CNC(=O)[C@H](CS)NC(=O)N[C@H](CS)C(=O)O)Cc1ccccc1 | 10.3 | 540
3 | NCCCC[C@H](NC(=O)N[C@@H](Cc1ccccc1)C(=O)NC[C@H](N)Cc1ccccc1)C(=O)O | 89.5 | 1490
4 | CC(C)C[C@H](NC(=O)N[C@@H](Cc1ccccc1)C(=O)NC[C@H](N)Cc1ccccc1)C(=O)O | 181 | –
5 | CSCC[C@H](NC(=O)N[C@@H](CS)C(=O)NC[C@H](N)Cc1ccccc1)C(=O)O | 16.5 | 1180
6 | N[C@@H](CNC(=O)[C@H](Cc1ccccc1)NC(=O)c1cc([N+](=O)[O-])cc([N+](=O)[O-])c1)Cc1ccccc1 | 277 | –
7 | CC(C)C[C@H](NC(=O)CCCCCN)C(=O)NC[C@H](N)Cc1ccccc1 | 1460 | –
8 | CC(C)C[C@H](NC(=O)N[C@@H](CS)C(=O)NC[C@H](N)Cc1ccccc1)C(=O)O | 45 | 2660
9 | NCCCCCC(=O)N[C@@H](CS)C(=O)NC[C@H](N)Cc1ccccc1 | 202 | –
10 | CC(C)C[C@H](NC(=O)N[C@@H](Cc1ccc(O)cc1)C(=O)O)C(=O)NC[C@H](N)Cc1ccccc1 | 107 | –
11 | N[C@@H](CNC(=O)[C@H](CS)NC(=O)N[C@@H](Cc1ccccc1)C(=O)O)Cc1ccccc1 | 9.8 | 1060
12 | NCCCC[C@H](NC(=O)N[C@@H](CS)C(=O)NC[C@H](N)Cc1ccccc1)C(=O)O | 8.6 | 290
13 | CC(C)[C@H](NC(=O)N[C@@H](Cc1ccccc1)C(=O)NC[C@H](N)Cc1ccccc1)C(=O)O | 58.5 | –
14 | COc1ccc(C(=O)N[C@@H](Cc2ccccc2)C(=O)NC[C@H](N)Cc2ccccc2)cc1 | 174 | –
15 | CC[C@H](C)[C@H](NC(=O)N[C@@H](CS)C(=O)NC[C@H](N)Cc1ccccc1)C(=O)O | 14.8 | –
16 | N[C@@H](CNC(=O)[C@H](CS)NC(=O)NCC(=O)O)Cc1ccccc1 | 174 | –
17 | CSCC[C@H](NC(=O)N[C@@H](Cc1ccccc1)C(=O)NC[C@H](N)Cc1ccccc1)C(=O)O | 8.8 | 270
18 | CSCC[C@H](NC(=O)N[C@@H](CC(C)C)C(=O)NC[C@H](N)Cc1ccccc1)C(=O)O | 30.4 | –
19 | NCCC[C@H](NC(=O)N[C@@H](CS)C(=O)NC[C@H](N)Cc1ccccc1)C(=O)O | 33.2 | –
20 | CC(C)C[C@H](NC(=O)NCC(=O)O)C(=O)NC[C@H](N)Cc1ccccc1 | 3240 | –
21 | CC[C@H](C)[C@H](NC(=O)N[C@@H](Cc1ccccc1)C(=O)NC[C@H](N)Cc1ccccc1)C(=O)O | 158 | –

Now from value to molecule, other results behind:

Row | IC50 (Aminopeptidase N) [µM] | SMILES | IC50 (HL-60) [µM]
22 | 148 | CC[C@H](C)[C@H](NC(=O)N[C@@H](CC(C)C)C(=O)NC[C@H](N)Cc1ccccc1)C(=O)O | –
23 | 49.2 | N[C@@H](CNC(=O)[C@H](Cc1ccccc1)NC(=O)N[C@H](CS)C(=O)O)Cc1ccccc1 | –
24 | 142 | CC(C)C[C@H](NC(=O)N[C@@H](CC(C)C)C(=O)NC[C@H](N)Cc1ccccc1)C(=O)O | –
25 | 522 | CC(C)C[C@H](NC(=O)N[C@@H](C)C(=O)O)C(=O)NC[C@H](N)Cc1ccccc1 | –
26 | 58.8 | CC(C)[C@H](NC(=O)N[C@@H](CS)C(=O)NC[C@H](N)Cc1ccccc1)C(=O)O | –
27 | 1540 | NCCCCCC(=O)N[C@@H](Cc1ccccc1)C(=O)NC[C@H](N)Cc1ccccc1 | –
28 | 366 | N[C@@H](CNC(=O)[C@H](Cc1ccccc1)NC(=O)CCc1ccccc1)Cc1ccccc1 | –
29 | 693 | N[C@@H](CNC(=O)[C@H](Cc1ccccc1)NC(=O)CCCCl)Cc1ccccc1 | –
30 | 1390 | N[C@@H](CNC(=O)[C@H](Cc1ccccc1)NC(=O)c1ccc([N+](=O)[O-])cc1)Cc1ccccc1 | –
31 | 2260 | N[C@@H](CNC(=O)[C@H](Cc1ccccc1)NC(=O)c1ccc(Cl)cc1Cl)Cc1ccccc1 | –
